Test results from patent US10301306B2, “Substituted dihydro-1H-pyrrolo[3,2-c]pyridin-4(5H)-ones as RIPK3 inhibitors” (BRISTOL-MYERS SQUIBB COMPANY, priority 2014, dated 2019).

Biological target: RIPK3 (Homo sapiens (Human), UniProt Q9Y572)
Assay: RIPK3 HTRF Kinase Assay
Assay type: binding
Conditions: RIPK3 1 nM; HTRF probe 23 nM; 60 min at room temperature; read-out: IC50 for Inhibition of RIPK3

RIPK3, sequence (Q9Y572 whole entry, species assumed): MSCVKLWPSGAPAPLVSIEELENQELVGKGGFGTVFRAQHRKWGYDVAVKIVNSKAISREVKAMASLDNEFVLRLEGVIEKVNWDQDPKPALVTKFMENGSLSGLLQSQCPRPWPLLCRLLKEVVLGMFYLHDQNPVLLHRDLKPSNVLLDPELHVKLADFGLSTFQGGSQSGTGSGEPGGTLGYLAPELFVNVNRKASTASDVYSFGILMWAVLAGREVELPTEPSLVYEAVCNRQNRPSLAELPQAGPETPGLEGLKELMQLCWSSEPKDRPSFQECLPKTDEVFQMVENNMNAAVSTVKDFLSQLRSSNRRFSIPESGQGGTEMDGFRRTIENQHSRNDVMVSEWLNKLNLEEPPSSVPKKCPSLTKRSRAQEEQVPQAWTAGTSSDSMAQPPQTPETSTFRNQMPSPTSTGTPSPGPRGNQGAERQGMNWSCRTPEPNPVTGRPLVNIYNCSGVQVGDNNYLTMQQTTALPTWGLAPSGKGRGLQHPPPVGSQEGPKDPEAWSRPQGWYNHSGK

Row | SMILES | IC50
1 | N#Cc1cc(F)ccc1Cn1c2c(c(-c3ccc4ncccc4c3)c1-c1ccncc1)C(=O)NCC2 [Example 116] | 100 to 15000 nM
2 | CNc1cc(-c2c(-c3ccc(F)cc3)c3c(n2Cc2ccc(C(F)(F)F)cc2F)CCNC3=O)ccn1 [Example 10] | 100 to 15000 nM
3 | CC(c1ccccc1)n1c2c(c(-c3ccc(F)cc3)c1-c1ccncc1)C(=O)NCC2 (stereo not shown) [Example 36] | 100 to 15000 nM
4 | Cc1cc(Cn2c3c(c(-c4cccc(NC=O)c4)c2-c2ccncc2)C(=O)NCC3)n(C)n1 [Example 178] | 100 to 15000 nM
5 | CC(C)C(=O)Nc1cc(-c2c(-c3ccc(F)cc3)c3c(n2CC2CCOCC2)CCNC3=O)ccn1 [Example 88] | 100 to 15000 nM
6 | CS(=O)(=O)c1cccc(-c2c3c(n(Cc4ccc(F)cc4C#N)c2-c2ccncc2)CCNC3=O)c1 [Example 126] | 100 to 15000 nM
7 | N#Cc1ccc(Cn2c3c(c(-c4ccc(F)cc4)c2-c2ccncc2)C(=O)NCC3)nc1 [Example 54] | 31 to 100 nM
8 | N#Cc1cc(F)ccc1Cn1c2c(c(-c3cccc(Cl)c3Cl)c1-c1ccncc1)C(=O)NCC2 [Example 129] | 31 to 100 nM
9 | Cn1cc(-c2c3c(n(Cc4ccc(Cl)cc4F)c2-c2ccncc2)CCNC3=O)cn1 [Example 165] | 100 to 15000 nM
10 | N#CCCCn1c2c(c(-c3ccc(F)cc3)c1-c1ccncc1)C(=O)NCC2 [Example 59] | 100 to 15000 nM
11 | CC(C)(C)OC(=O)Nc1cccc(-c2c3c(n(Cc4ccc(Cl)cc4F)c2-c2ccncc2)CCNC3=O)c1 [Example 163] | 31 to 100 nM
12 | Cc1cc(Cn2c3c(c(-c4cccc(-c5c(C)noc5C)c4)c2-c2ccncc2)C(=O)NCC3)n(C)n1 [Example 173] | 100 to 15000 nM
13 | Cc1nc(Cn2c3c(c(-c4ccc(F)cc4)c2-c2ccncc2)C(=O)NCC3)cs1 [Example 60] | 31 to 100 nM
14 | Cn1c(-c2ccncc2)c(-c2ccc(F)cc2)c2c1C(C)(C)CNC2=O [Example 154, 3-(4-Fluorophenyl)-1,7,7-trimethyl-2-(pyridin-4-yl)-6,7-dihydro-1H-pyrrolo[3,2-c]pyridin-4(5H)-one] | 100 to 15000 nM
15 | Cc1cc(-c2c3c(n(Cc4ccc(Cl)cc4F)c2-c2ccncc2)CCNC3=O)ccn1 [Example 168] | 100 to 15000 nM
16 | CC1(C)CNC(=O)c2c1[nH]c(-c1ccncc1)c2-c1ccc(F)cc1 [Example 153, 3-(4-Fluorophenyl)-7,7-dimethyl-2-(pyridin-4-yl)-6,7-dihydro-1H-pyrrolo[3,2-c]pyridin-4(5H)-one] | < 30 nM
17 | O=C1NCCc2c1c(-c1ccc(F)cc1)c(-c1ccncc1)n2CC1CCCC1 [Example 78] | < 30 nM
18 | O=C1NCCc2c1c(-c1cccc(OC(F)(F)F)c1)c(-c1ccncc1)n2CC1CCOCC1 [Example 110] | 100 to 15000 nM
19 | Cc1cc(Cn2c3c(c(-c4cccc(NC(=O)C5CC5)c4)c2-c2ccncc2)C(=O)NCC3)n(C)n1 [Example 177] | 100 to 15000 nM
20 | N#Cc1cc(F)ccc1Cn1c2c(c(-c3ccsc3)c1-c1ccncc1)C(=O)NCC2 [Example 128] | < 30 nM
21 | CN(C)c1cccc(-c2c3c(n(CC4CCOCC4)c2-c2ccncc2)CCNC3=O)c1 [Example 109] | 100 to 15000 nM
22 | Cc1n[nH]cc1-c1c(-c2ccc(F)cc2)c2c(n1Cc1ccc(F)cc1C#N)CCNC2=O [Example 1, 5-Fluoro-2-((3-(4-fluorophenyl)-2-(3-methyl-1H-pyrazol-4-yl)-4-oxo-4,5,6,7-tetrahydro-1H-pyrrolo[3,2-c]pyridin-1-yl)methyl)benzonitrile] | 100 to 15000 nM

Row | SMILES | IC50
23 | O=C1NCCc2c1c(-c1ccc(F)cc1)c(-c1ccncc1)n2CC1CCNCC1 [Example 30] | 100 to 15000 nM
24 | O=C1NCCc2c1c(-c1ccc(F)cc1)c(-c1ccncc1)n2Cc1cc(F)cc(C(F)(F)F)c1 [Example 41] | < 30 nM
25 | COc1ccc(-c2c3c(n(CC4CCOCC4)c2-c2ccncc2)CCNC3=O)cn1 [Example 107] | 100 to 15000 nM
26 | COc1ccc(C(=O)Nc2cc(-c3c(-c4ccc(F)cc4)c4c(n3CC3CCOCC3)CCNC4=O)ccn2)cc1 [Example 89] | 100 to 15000 nM
27 | N#Cc1cc(F)ccc1Cn1c2c(c(-c3ccc(F)cc3)c1-c1ccncc1F)C(=O)NCC2 [Example 27] | < 30 nM
28 | CC(=O)Nc1cccc(-c2c(-c3ccc(F)cc3)c3c(n2Cc2ccc(F)cc2C#N)CCNC3=O)c1 [Example 21] | 100 to 15000 nM
29 | COc1cnccc1-c1c(-c2ccc(F)cc2)c2c(n1Cc1ccc(F)cc1C#N)CCNC2=O [Example 15] | 31 to 100 nM
30 | Cc1nc(-c2ccc(Cn3c4c(c(-c5ccc(F)cc5)c3-c3ccncc3)C(=O)NCC4)c(F)c2)no1 [Example 48] | < 30 nM
31 | CCC(C)n1c2c(c(-c3ccc(F)cc3)c1-c1ccncc1)C(=O)NCC2 (stereo not shown) [Example 63] | 100 to 15000 nM
32 | O=c1[nH]ccc2c1c(-c1ccc(F)cc1)c(-c1ccnc(Cl)c1)n2Cc1ccc(C(F)(F)F)cc1F [Example 155, 2-(2-Chloropyridin-4-yl)-1-(2-fluoro-4-(trifluoromethyl)benzyl)-3-(4-fluorophenyl)-1H-pyrrolo[3,2-c]pyridin-4(5H)-one] | 100 to 15000 nM
33 | COc1ccc(-c2c3c(n(CC4CCOCC4)c2-c2ccncc2)CCNC3=O)cc1 [Example 104] | 100 to 15000 nM
34 | COc1ccc(CCn2c3c(c(-c4ccc(F)cc4)c2-c2ccncc2)C(=O)NCC3)cc1 [Example 37] | 100 to 15000 nM
35 | CC(=O)Nc1cc(-c2c(-c3ccc(F)cc3)c3c(n2CC2CCOCC2)CCNC3=O)ccn1 [Example 3, N-(4-(3-(4-Fluorophenyl)-4-oxo-1-((tetrahydro-2H-pyran-4-yl)methyl)-4,5,6,7-tetrahydro-1H-pyrrolo[3,2-c]pyridin-2-yl)pyridin-2-yl)acetamide] | 100 to 15000 nM
36 | O=C1NCCc2c1c(-c1ccc(F)cc1)c(-c1ccnc(NC(=O)C3CC3)c1)n2Cc1ccc(C(F)(F)F)cc1F [Example 8, N-(4-(1-(2-Fluoro-4-(trifluoromethyl)benzyl)-3-(4-fluorophenyl)-4-oxo-4,5,6,7-tetrahydro-1H-pyrrolo[3,2-c]pyridin-2-yl)pyridin-2-yl)cyclopropanecarboxamide] | < 30 nM
37 | COc1cc(F)cc(-c2c3c(n(Cc4ccc(F)cc4C#N)c2-c2ccncc2)CCNC3=O)c1 [Example 117] | 31 to 100 nM
38 | N#Cc1cc(F)ccc1Cn1c2c(c(-c3cc(Cl)cc(Cl)c3)c1-c1ccncc1)C(=O)NCC2 [Example 138] | < 30 nM
39 | CC(C)OC(=O)Nc1cc(-c2c(-c3ccc(F)cc3)c3c(n2CC2CCOCC2)CCNC3=O)ccn1 [Example 91] | 100 to 15000 nM
40 | N#Cc1cc(F)ccc1Cn1c2c(c(-c3cccc(C(F)(F)F)c3)c1-c1ccncc1)C(=O)NCC2 [Example 123] | < 30 nM
41 | COc1cnccc1-c1c(-c2ccc(F)cc2)c2c(n1Cc1cc(C)nn1C)CCNC2=O [Example 183] | < 30 nM
42 | N#CCn1c2c(c(-c3ccc(F)cc3)c1-c1ccncc1)C(=O)NCC2 [Example 49] | 100 to 15000 nM
43 | CCC(=O)Nc1cccc(-c2c3c(n(Cc4cc(C)nn4C)c2-c2ccncc2)CCNC3=O)c1 [Example 179] | 100 to 15000 nM
44 | O=C1NCCc2c1c(-c1ccc(F)cc1)c(-c1ccncc1)n2CC1CCOCC1 [Example 31] | 100 to 15000 nM

Row | SMILES | IC50
45 | O=C(Nc1cc(-c2c(-c3ccc(F)cc3)c3c(n2CC2CCOCC2)CCNC3=O)ccn1)c1ccccc1 [Example 86] | 100 to 15000 nM
46 | O=C1NCCc2c1c(-c1ccc(F)cc1)c(-c1ccncc1)n2Cc1ccc(OC(F)(F)F)c(Cl)c1 [Example 40] | 100 to 15000 nM
47 | N#Cc1cc(F)ccc1Cn1c2c(c(-c3ccc(OCc4ccccc4)cc3)c1-c1ccncc1)C(=O)NCC2 [Example 135] | 100 to 15000 nM
48 | CCCC(=O)Nc1cccc(-c2c3c(n(Cc4ccc(Cl)cc4F)c2-c2ccncc2)CCNC3=O)c1 [Example 170] | 100 to 15000 nM
49 | CC(C)NC(=O)Cn1c2c(c(-c3ccc(F)cc3)c1-c1ccncc1)C(=O)NCC2 [Example 83] | 100 to 15000 nM
50 | O=C1NCCc2c1c(-c1ccc(F)cc1)c(-c1ccncc1)n2Cc1ccccn1 [Example 76] | 100 to 15000 nM
51 | Cn1ccnc1Cn1c2c(c(-c3ccc(F)cc3)c1-c1ccncc1)C(=O)NCC2 [Example 80] | 100 to 15000 nM
52 | Cc1cc(-c2c(-c3ccc(F)cc3)c3c(n2Cc2ccc(F)cc2C#N)CCNC3=O)ccn1 [Example 20] | 31 to 100 nM
53 | O=C1NCCc2c1c(-c1ccc(F)cc1)c(-c1ccncc1)n2Cc1nnc(C2CC2)o1 [Example 56] | 100 to 15000 nM
54 | O=C1NCCc2c1c(-c1ccc(F)cc1)c(-c1ccncc1)n2CCO [Example 82] | 100 to 15000 nM
55 | N#Cc1cc(F)ccc1Cn1c2c(c(-c3cccc(OC(F)(F)F)c3)c1-c1ccncc1)C(=O)NCC2 [Example 114] | 31 to 100 nM
56 | Cc1cc(Cn2c3c(c(-c4ccc(F)cc4)c2-c2ccncc2F)C(=O)NCC3)n(C)n1 [Example 182] | 31 to 100 nM
57 | Cc1cc(Cn2c3c(c(-c4cccc(NC(=O)OC(C)(C)C)c4)c2-c2ccncc2)C(=O)NCC3)n(C)n1 [Example 171] | 31 to 100 nM
58 | COc1ccc(-c2c3c(n(Cc4ccc(F)cc4C#N)c2-c2ccncc2)CCNC3=O)cc1 [Example 121] | 31 to 100 nM
59 | N#Cc1cc(F)ccc1Cn1c2c(c(-c3ccc(F)c(F)c3)c1-c1ccncc1)C(=O)NCC2 [Example 115] | < 30 nM
60 | CCNC(=O)Nc1cc(-c2c(-c3ccc(F)cc3)c3c(n2CC2CCOCC2)CCNC3=O)ccn1 [Example 97] | 100 to 15000 nM
61 | COc1cc(-c2c3c(n(Cc4ccc(F)cc4C#N)c2-c2ccncc2)CCNC3=O)ccn1 [Example 140] | < 30 nM
62 | O=c1[nH]ccc2c1c(-c1ccc(F)cc1)c(-c1ccncc1)n2Cc1ccc(C(F)(F)F)cc1F [Example 157, 1-(2-Fluoro-4-(trifluoromethyl)benzyl)-3-(4-fluorophenyl)-2-(pyridin-4-yl)-1H-pyrrolo[3,2-c]pyridin-4(5H)-one] | < 30 nM
63 | O=C1NCCc2c1c(-c1ccc(F)cc1)c(-c1ccncc1)n2Cc1nnc(C2CC2)s1 [Example 47] | 100 to 15000 nM
64 | N#Cc1cc(F)ccc1Cn1c2c(c(-c3ccc(Cl)s3)c1-c1ccncc1)C(=O)NCC2 [Example 130] | < 30 nM
65 | O=C1NCCc2c1c(-c1ccc(F)cc1)c(-c1ccncc1)n2Cc1c(F)cccc1C(F)(F)F [Example 73] | < 30 nM

Same assay, conditions: read-out: IC50 for Inhibition of RIPK3

Row | SMILES | IC50
66 | N#Cc1cc(F)ccc1Cn1c2c(c(-c3cccc(-c4ccccc4)c3)c1-c1ccncc1)C(=O)NCC2 [Example 120] | 100 to 15000 nM
67 | N#Cc1cc(F)ccc1Cn1c2c(c(-c3ccc(F)cc3)c1-c1ccnc(F)c1)C(=O)NCC2 [Example 18] | 100 to 15000 nM
